# According to article PMC11725581, “Developing novel Lin28 inhibitors by computer aided drug design” (Cell Death Discovery, 2025):
# pIC50: −log10 of the molar value.
# What was measured:
# DuNE spheroids = assay: DuNE 3D spheroid growth (Incucyte); assay type: cell-based; settings: 0-100 μM, 0-6 days, read-out: concentration to achieve 50% spheroid growth inhibition
# Text: (§1) CSCs have characteristic tumorigenic, self-renewal, and differentiation properties. The self-renewal ability is hijacked by CSCs that makes them both tumorigenic and capable of sustaining long-term tumor growth, which can be evaluated by 3D spheroid and colony formation assays. We established a DuNE spheroid model in which DuNE cells formed 3D spheroids in 96-well plates (Figure S3). By integrating this 3D culture with the Incucyte live-cell imaging system, we quantified the sizes of the spheroid growth over 0–6 days to generate a spheroid growth curve. Using this model system, we treated the DuNE spheroids with increasing doses (0–100 μM) of C1632, Ln15, and Ln268 for 0–6 days. […] In addition, classic colony formation assays were used to measure the stemness in the DuNE model. Colony formation counts, which were ~50 under vehicle treatment after 14 days, decreased by 22% in C1632-treated plates, and by 75% and 96% in the Ln15 and Ln268 treated plates, respectively (Fig. 4D).
# For a spheroid generation, 1000 cells/well were seeded in 96-well ULA round-bottomed plates (Corning, Amsterdam) using a multichannel pipette. 3D multicellular spheroids were spontaneously generated after 24 h culture. Plates were incubated for 6 days at 37 °C, 5% CO2, and 95% humidity. DuNE and Du145 cells were cultured in DMEM with 10% FBS. Fully automated image analysis of tumor spheroids was carried out with the Incucyte® S3 Live-Cell Analysis System. The size and shape of multicellular spheroids were analyzed by using the Incucyte® Spheroid Analysis Software Module.
# Lin28b ZKD [1] = molecular target: T1, Lin28b ZKD (Homo sapiens, UniProt Q6ZN17); assay: Fluorescence polarization (FP) assay, Lin28b ZKD:pre-let-7d interaction; assay type: binding; settings: 10 nM pre-let-7d probe, 1 μM Lin28b ZKD
# T1 sequence (Q6ZN17 127-166 limits assumed): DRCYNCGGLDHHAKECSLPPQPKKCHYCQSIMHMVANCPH
# Protocol: We conducted two biochemical assays, FP and EMSA, to validate the predicted compounds. To optimize the FP assays, we performed a series of titrations using: (1) FAM-labeled pre-let-7d RNA probe, (2) Lin28b ZKD protein, and (3) non-labeled pre-let-7 probe as a competitor (Fig. 2A). These assays yielded the optimal concentrations required for the subsequent FP validation assays, namely 10 nM for the pre-let-7d probe and 1 μM for Lin28b ZKD protein. The FP signal from the free probe was set as 0%, while the signal from the probe-ZKD complex in the absence of compounds was set as 100%. C1632 was used as a control Lin28 inhibitor (Fig. 2B). […] Since the docking pocket is almost identical between Lin28a and Lin28b homologs, we repeated the FP assays using Lin28a ZKD (Figure S2).
# The fluorescein amidites (FAM)-tagged pre-Let-7d probe with the sequence of […] was purchased from Integrated DNA Technologies (IDT). The probe at the concentrations ranging from 1 nM to 50 uM was incubated with Lin28B (ZKD) or Lin28 (CSD+ZKD) to a final volume of 30 uL at room temperature for 20 min. To read the fluorescence, a TECAN 500 machine was used. Fluorescence polarization was calculated using the following equation:
# P=(Fparrallel−Fperpendicular)/(Fparrallel+FperpendicularP)
# where P is the fluorescence polarization reading, F parallel is the fluorescence intensity acquired from the parallel excitation plane, and F perpendicular is the fluorescence intensity acquired from the perpendicular direction of the excitation plane. The total fluorescence intensity is estimated using the following equation:
# F=Fparallel+2FperpendicularF.
# All the raw FP signal data from the TECAN 500 FP results were analyzed using Prism 8.0 (GraphPad, San Diego, CA, USA); normalized curves were plotted and IC50 values were estimated. All FP data were repeated three to five times.
# Figure S1. Lin28b ZKD protein was incubated with the indicated compounds at the concentration of 0, 0.1, 0.2, 0.5, 1, 2, 5, 10, 20, 50, 100, and 200uM. FP signals were measured and plotted relative to that from vehicle.
# Lin28b ZKD [2] = molecular target: T1, Lin28b ZKD; assay: 1H-15N HSQC NMR of Lin28b-ZKD with ligand; assay type: binding; settings: ligand added in 20:1 molar ratio
# Text: Given that Ln268 is derived from the parent compound Ln15, we wanted to assess whether the improved properties of Ln268 were linked to a potential difference in its interaction with Lin28 ZKD. To this end, we collected ^1H-^15N HSQC spectra of Lin28b-ZKD, Lin28b-ZKD + Ln15, and Lin28b-ZKD + Ln268. RNA binding proteins (RBPs) commonly have binding pockets that are intrinsically disordered, as evidenced by the narrow chemical shift dispersion observed in the HQSC of Lin28b-ZKD alone (Fig. 3D). Addition of either Ln15 or Ln268 led to changes in the chemical shifts of ca. 20 residues, consistent with the change in conformation of the Lin28b-ZKD segment which encompasses residues 137–160 (three of which are prolines) upon RNA binding (Fig. 3E). Although many of the peak shifts are the same for the Ln15 and Ln268 containing samples, there are around 7 resonances where the peaks disappear in the case of Ln268.
# NMR spectra were recorded at 5 °C on a Bruker Avance III 850 MHz spectrometer, equipped with a TCI cryoprobe. ^1H-^15N HSQC experiments were recorded on ^13C/^15N-labeled Lin28b ZKD (230 μM), in 20 mM d-Tris-HCl (pH 7.5), 100 mM NaCl, 1 mM d-DTT, 0.02% NaN3, 0.25 mM ZnCl2 + 1 mM IDA, and 10% D2O, to which unlabeled Ln15 and Ln268 was added, respectively. The time domain matrix was 4k by 512. Four scans were acquired per t1 increment. Spectra were processed and plotted using Topspin to a final size of 8k by 1k. For the overlays, the levels were set to the same base level in all cases, with a multiplication factor of 1.1.
# DuNE cells = assay: Colony formation assay, DuNE cells; assay type: cell-based; settings: 14 days, vs vehicle (~50 colonies)
# Text: as §1
# In the colony formation assays, cancer cells were seeded in 0.7% soft agar in a 6-well plate, with a 1% soft agar bottom base coating. Cells were allowed to grow for 14 days to form colonies. Colonies were stained with crystal violet and imaged by stitching 5X field images together to capture the entire well (Zeiss light microscope [Carl Zeiss]). Colony numbers were counted according to their diameters (100-300um or >300um). Three independent biological replicates were performed for all the assays.
# Lin28a protein = molecular target: T2, Lin28a protein (Homo sapiens, UniProt Q9H9Z2); assay: EMSA with Lin28a protein and pre-let-7d probe; assay type: binding; settings: same EMSA conditions
# T2 sequence (Q9H9Z2 1-209): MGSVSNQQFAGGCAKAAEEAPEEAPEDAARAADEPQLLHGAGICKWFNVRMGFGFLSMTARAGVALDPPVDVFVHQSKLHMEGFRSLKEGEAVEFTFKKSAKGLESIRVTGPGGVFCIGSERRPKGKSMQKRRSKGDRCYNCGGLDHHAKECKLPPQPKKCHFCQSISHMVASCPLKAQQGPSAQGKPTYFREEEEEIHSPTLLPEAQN
# Protocol: (§2) We next validated the newly developed compounds using EMSA, a non-florescent-based assay to detect Lin28b ZKD:pre-let-7 complex formation. Similar to the FP assays, we first optimized the experimental conditions by titrating: (1) IRDye800-labeled pre-let-7d RNA probe, (2) Lin28b ZKD protein, and (3) non-labeled pre-let-7 probe as a competitor (Fig. 2C). For the validation experiments, 1 μM Lin28 ZKD and 10 nM of IRDye800-labeled pre-let-7d probe were mixed with each candidate compound. Compounds C1632 and Ln15 were used as control Lin28 inhibitors, respectively. […] Regardless, we use these two biochemical assays to shortlist the most promising compounds for further characterization. […] While our inhibitors directly target the Lin28 ZKD, it is unclear whether C1632 may bind to domains other than the ZKD or allosterically disrupt Lin28’s capacity to bind its RNA substrates.
# EMSA followed the standard protocols we published. An IRDye800CWN-labeled pre-Let-7d RNA probe (5’-IRD800CWN-[…]-3’) was purchased from IDT (Coralville, IA, USA). Lin28a or Lin28b proteins were incubated with 300 nM of probe in a standard 20 uL EMSA reaction in a reaction buffer containing 20 mM HEPES-NaOH, pH 7.4, 2 mM DTT, 3 mM MgCl2, 0.05% NP-40, protease inhibitors, and 0.1 ug poly[dI:dC]. After incubation for 30 min at 37 °C, reactions were loaded onto 4% non-denatured polyacrylamide gel in 0.5× TBE buffer. […]
# cancer cells = tested on: cancer cells; set-up: method as in PMID 27548809; settings: cited from earlier work
# Lin28b ZKD [3] = molecular target: T1, Lin28b ZKD; assay: EMSA, Lin28b ZKD:pre-let-7d complex formation; assay type: binding; settings: 1 μM Lin28 ZKD, 10 nM IRDye800-labeled pre-let-7d probe
# Protocol: as §2
# EMSA followed the standard protocols we published. An IRDye800CWN-labeled pre-Let-7d RNA probe (5’-IRD800CWN-[…]-3’) was purchased from IDT (Coralville, IA, USA). Lin28a or Lin28b proteins were incubated with 300 nM of probe in a standard 20 uL EMSA reaction in a reaction buffer containing 20 mM HEPES-NaOH, pH 7.4, 2 mM DTT, 3 mM MgCl2, 0.05% NP-40, protease inhibitors, and 0.1 ug poly[dI:dC]. After incubation for 30 min at 37 °C, reactions were loaded onto 4% non-denatured polyacrylamide gel in 0.5× TBE buffer. The RNA oligo bands were visualized by using the Li-Cor Odyssey 9120 Infrared Imaging System.
compound,measurement,setting,value
O=c1[nH]c(Nc2ccccc2O)cs1 [Ln15],pIC50,DuNE spheroids,4.30
same,pIC50,Lin28b ZKD [1],5.05
same,residues of Lin28b-ZKD with changed chemical shifts (1H-15N HSQC),Lin28b ZKD [2],ca. 20 residues
same,decrease of colony formation counts,DuNE cells,75%
"CC(=O)N(C)c1cccc(-c2ccc3nnc(C)n3n2)c1 [C1632, reference compound]",pIC50,DuNE spheroids,4.00
same,inhibition of Lin28a protein (EMSA),Lin28a protein,did not observe any obvious inhibition
same,concentration needed for inhibitory effects on cancer cells,cancer cells,exceeding 100 μM
same,decrease of colony formation counts,DuNE cells,22%
same,inhibition of Lin28b ZKD:pre-let-7d complex formation (EMSA),Lin28b ZKD [3],did not observe any obvious inhibition
